# Target: Human PDE9 (PDE9A2) (Homo sapiens (Human), UniProt O76083)
# Assay: PDE9 IMAP fluorescence polarization assay
# Format: biochemical
# Conditions: human PDE9A2, FAM-cGMP substrate 50 nM, IMAP FP, apparent inhibition constant
# Procedure: The activity of the compounds in accordance with the present invention as PDE9 inhibitors may be readily determined without undue experimentation using a fluorescence polarization (FP) methodology that is well known in the art (Huang, W., et al., J. Biomol Screen. 2002, 7: 215).
# In a typical experiment the PDE9 inhibitory activity of the compounds of the present invention was determined in accordance with the following experimental method.
# Human PDE9 (PDE9A2, GenBank Accession No. NM_001001567), full length with N-terminal GST tag, was purchased from BPS Bioscience. The fluorescence polarization assay for cyclic nucleotide phosphodiesterases was performed using an IMAP® FP kit supplied by Molecular Devices, Sunnyvale, CA (product #R8139). IMAP® technology has been applied previously to phosphodiesterase assays (Huang, W., et al., J. Biomol Screen. 2002, 7: 215).
# Fluorescence polarization (mP) was calculated from the parallel (S) and perpendicular (P) fluorescence of each sample well and the analogous values for the median control well, containing only substrate (So and Po), using the following equation: Polarization (mP)=1000*(S/So−P/Po)/(S/So+P/Po).
# Dose-inhibition profiles for each compound were characterized by fitting the mP data to a four-parameter equation given below. The apparent inhibition constant (KI), the maximum inhibition at the low plateau relative to “100% Inhibition Control” (Imax; e.g. 1=>same as this control), the minimum inhibition at the high plateau relative to the “0% Inhibition Control” (Imin, e.g. 0=>same as the no drug control) and the Hill slope (nH) are determined by a non-linear least squares fitting of the mP values as a function of dose of the compound using an in-house software based on the procedures described by Mosser et al., JALA. 2003, 8: 54-63, using the following equation: […]
row,SMILES,Ki [nM]
1,"Cc1nnc(C2CCC2c2nc3c(c(C#N)nn3C(C)c3ccc(C(F)(F)F)nc3)c(=O)[nH]2)o1 (single isomer, unassigned) [Example 1, 6-(2-(5-methyl-1,3,4-oxadiazol-2-yl)cyclobutyl)-4-oxo-1-(1-(6-(trifluoromethyl)pyridin-3-yl)ethyl)-4,5-dihydro-1H-pyrazolo[3,4-d]pyrimidine-3-carbonitrile]",28.9
2,"Cc1nnc(C2CCC2c2nc3c(c(C#N)nn3C(C)c3ccc(C(F)(F)F)nc3)c(=O)[nH]2)o1 (single isomer, unassigned) [Example 2, 6-(2-(5-methyl-1,3,4-oxadiazol-2-yl)cyclobutyl)-4-oxo-1-(1-(6-(trifluoromethyl)pyridin-3-yl)ethyl)-4,5-dihydro-1H-pyrazolo[3,4-d]pyrimidine-3-carbonitrile]",118
3,"Cc1nnc(C2CCC2c2nc3c(c(C#N)nn3C(C)c3ccc(C(F)(F)F)nc3)c(=O)[nH]2)o1 (single isomer, unassigned) [Example 3, 6-(2-(5-methyl-1,3,4-oxadiazol-2-yl)cyclobutyl)-4-oxo-1-(1-(6-(trifluoromethyl)pyridin-3-yl)ethyl)-4,5-dihydro-1H-pyrazolo[3,4-d]pyrimidine-3-carbonitrile]",221
4,"Cc1nnc(C2CCC2c2nc3c(c(C#N)nn3C(C)c3ccc(C(F)(F)F)nc3)c(=O)[nH]2)o1 (single isomer, unassigned) [Example 4, 6-(2-(5-methyl-1,3,4-oxadiazol-2-yl)cyclobutyl)-4-oxo-1-(1-(6-(trifluoromethyl)pyridin-3-yl)ethyl)-4,5-dihydro-1H-pyrazolo[3,4-d]pyrimidine-3-carbonitrile]",229
5,"Cc1nnc(C2CCC2c2nc3c(c(C#N)nn3C(C)c3ccc(C(F)(F)F)nc3)c(=O)[nH]2)o1 (single isomer, unassigned) [Example 5, 6-(2-(5-methyl-1,3,4-oxadiazol-2-yl)cyclobutyl)-4-oxo-1-(1-(6-(trifluoromethyl)pyridin-3-yl)ethyl)-4,5-dihydro-1H-pyrazolo[3,4-d]pyrimidine-3-carbonitrile]",35
6,"Cc1nnc(C2CCC2c2nc3c(c(C#N)nn3C(C)c3ccc(C(F)(F)F)nc3)c(=O)[nH]2)o1 (single isomer, unassigned) [Example 6, 6-(2-(5-methyl-1,3,4-oxadiazol-2-yl)cyclobutyl)-4-oxo-1-(1-(6-(trifluoromethyl)pyridin-3-yl)ethyl)-4,5-dihydro-1H-pyrazolo[3,4-d]pyrimidine-3-carbonitrile]",42.7
7,"Cc1nnc(C2CCC2c2nc3c(c(C#N)nn3C(C)c3ccc(C(F)(F)F)nc3)c(=O)[nH]2)o1 (single isomer, unassigned) [Example 7, 6-(2-(5-methyl-1,3,4-oxadiazol-2-yl)cyclobutyl)-4-oxo-1-(1-(6-(trifluoromethyl)pyridin-3-yl)ethyl)-4,5-dihydro-1H-pyrazolo[3,4-d]pyrimidine-3-carbonitrile]",167
8,"C[C@@H](c1ccc(C(F)(F)F)nc1)n1nc(C#N)c2c(=O)[nH]c(C3CCC3c3ccccn3)nc21 (single isomer, unassigned) [Example 8]",0.034
9,"C[C@@H](c1ccc(C(F)(F)F)nc1)n1nc(C#N)c2c(=O)[nH]c(C3CCC3c3ccccn3)nc21 (single isomer, unassigned) [Example 9]",2.72
10,"C[C@@H](c1ccc(C(F)(F)F)nc1)n1nc(C#N)c2c(=O)[nH]c(C3CCC3c3ccc(F)cn3)nc21 (single isomer, unassigned) [Example 13]",608
11,"C[C@@H](c1ccc(C(F)(F)F)nc1)n1nc(C#N)c2c(=O)[nH]c(C3CCC3c3ccc(F)cn3)nc21 (single isomer, unassigned) [Example 14]",0.12
12,"C[C@@H](c1ccc(C(F)(F)F)nc1)n1nc(C#N)c2c(=O)[nH]c(C3CCC3c3ncccc3F)nc21 (single isomer, unassigned) [Example 15]",14.1
13,"C[C@@H](c1ccc(C(F)(F)F)nc1)n1nc(C#N)c2c(=O)[nH]c(C3CCC3c3ncccc3F)nc21 (single isomer, unassigned) [Example 16]",0.461
14,"C[C@@H](c1ccc(C(F)(F)F)nc1)n1nc(C#N)c2c(=O)[nH]c(C3CCC3c3ccn(C)n3)nc21 (single isomer, unassigned) [Example 17]",43.2
15,"C[C@@H](c1ccc(C(F)(F)F)nc1)n1nc(C#N)c2c(=O)[nH]c(C3CCC3c3ccn(C)n3)nc21 (single isomer, unassigned) [Example 18]",35.9
16,"C[C@@H](c1ccc(C(F)(F)F)nc1)n1nc(C#N)c2c(=O)[nH]c(C3CCC3c3ccnn3C)nc21 (single isomer, unassigned) [Example 19]",0.145

row,SMILES,Ki [nM]
1,"C[C@@H](c1ccc(C(F)(F)F)nc1)n1nc(C#N)c2c(=O)[nH]c(C3CCC3c3cncnc3)nc21 (single isomer, unassigned) [Example 20]",0.602
2,"C[C@@H](c1ccc(C(F)(F)F)nc1)n1nc(C#N)c2c(=O)[nH]c(C3CCC3c3cncnc3)nc21 (single isomer, unassigned) [Example 21]",176
3,"CC(c1ccc(C(F)(F)F)nc1)n1nc(C#N)c2c(=O)[nH]c(C3CCC3n3cc(C#N)cn3)nc21 (single isomer, unassigned) [Example 24, 6-(2-(4-cyano-1H-pyrazol-1-yl)cyclobutyl)-4-oxo-1-(1-(6-(trifluoromethyl)pyridin-3-yl)ethyl)-4,5-dihydro-1H-pyrazolo[3,4-d]pyrimidine-3-carbonitrile]",22.3
4,"CC(c1ccc(C(F)(F)F)nc1)n1nc(C#N)c2c(=O)[nH]c(C3CCC3n3cc(C#N)cn3)nc21 (single isomer, unassigned) [Example 25, 6-(2-(4-cyano-1H-pyrazol-1-yl)cyclobutyl)-4-oxo-1-(1-(6-(trifluoromethyl)pyridin-3-yl)ethyl)-4,5-dihydro-1H-pyrazolo[3,4-d]pyrimidine-3-carbonitrile]",0.35
5,"CC(c1ccc(C(F)(F)F)nc1)n1nc(C#N)c2c(=O)[nH]c(C3CCC3n3ccc(C#N)n3)nc21 (single isomer, unassigned) [Example 26, 6-(2-(3-cyano-1H-pyrazol-1-yl)cyclobutyl)-4-oxo-1-(1-(6-(trifluoromethyl)pyridin-3-yl)ethyl)-4,5-dihydro-1H-pyrazolo[3,4-d]pyrimidine-3-carbonitrile]",96.1
6,"CC(c1ccc(C(F)(F)F)nc1)n1nc(C#N)c2c(=O)[nH]c(C3CCC3n3ccc(C#N)n3)nc21 (single isomer, unassigned) [Example 27, 6-(2-(3-cyano-1H-pyrazol-1-yl)cyclobutyl)-4-oxo-1-(1-(6-(trifluoromethyl)pyridin-3-yl)ethyl)-4,5-dihydro-1H-pyrazolo[3,4-d]pyrimidine-3-carbonitrile]",1.51
7,"CC(c1ccc(C(F)(F)F)nc1)n1nc(C#N)c2c(=O)[nH]c(C3CCC3n3ccc(C#N)n3)nc21 (single isomer, unassigned) [Example 28, 6-(2-(3-cyano-1H-pyrazol-1-yl)cyclobutyl)-4-oxo-1-(1-(6-(trifluoromethyl)pyridin-3-yl)ethyl)-4,5-dihydro-1H-pyrazolo[3,4-d]pyrimidine-3-carbonitrile]",31
8,"CC(c1ccc(C(F)(F)F)nc1)n1nc(C#N)c2c(=O)[nH]c(C3CCC3n3ccc(C#N)n3)nc21 (single isomer, unassigned) [Example 29, 6-(2-(3-cyano-1H-pyrazol-1-yl)cyclobutyl)-4-oxo-1-(1-(6-(trifluoromethyl)pyridin-3-yl)ethyl)-4,5-dihydro-1H-pyrazolo[3,4-d]pyrimidine-3-carbonitrile]",0.256
9,"C[C@@H](c1ccc(C(F)(F)F)nc1)n1nc(C#N)c2c(=O)[nH]c(C3CCC3n3cc(F)cn3)nc21 (single isomer, unassigned) [Example 34]",5.9
10,"C[C@@H](c1ccc(C(F)(F)F)nc1)n1nc(C#N)c2c(=O)[nH]c(C3CCC3n3cc(F)cn3)nc21 (single isomer, unassigned) [Example 35]",0.402
11,"C[C@@H](c1ccc(C(F)(F)F)nc1)n1nc(C#N)c2c(=O)[nH]c(C3CCC3n3cccn3)nc21 (single isomer, unassigned) [Example 36]",148
12,"C[C@@H](c1ccc(C(F)(F)F)nc1)n1nc(C#N)c2c(=O)[nH]c(C3CCC3n3cccn3)nc21 (single isomer, unassigned) [Example 37]",124
13,"C[C@@H](c1ccc(C(F)(F)F)nc1)n1nc(C#N)c2c(=O)[nH]c(C3CCC3n3cc(C4CC4)cn3)nc21 (single isomer, unassigned) [Example 38]",11
14,"C[C@@H](c1ccc(C(F)(F)F)nc1)n1nc(C#N)c2c(=O)[nH]c(C3CCC3n3cc(C4CC4)cn3)nc21 (single isomer, unassigned) [Example 39]",1.75
15,"CC(C1CCOCC1)n1nc(C#N)c2c(=O)[nH]c(C3CCC3n3cc(C#N)cn3)nc21 (single isomer, unassigned) [Example 48, 6-(2-(4-cyano-1H-pyrazol-1-yl)cyclobutyl)-4-oxo-1-(1-(tetrahydro-2H-pyran-4-yl)ethyl)-4,5-dihydro-1H-pyrazolo[3,4-d]pyrimidine-3-carbonitrile]",366

# Source: patent publication US12247031B2, “Cyclobutyl pyrazolopyrimidine PDE9 inhibitors” (Merck Sharp & Dohme LLC, priority 2018, dated 2025)
